The nature of data set [1]: Gut transition time of orally administered TAMRA-labeled Aβ. The format is in vivo, mouse. The following applies: 10 μg oral; for Gut segment in which TAMRA fluorescence was detected (2 cm sections, 1 = stomach to 12 = rectal): one animal, technical duplicates. The protocol: (§1) Animals were lightly anesthetized with Isoflurane and 10 μg of peptide or solvent (10 mM NH4OH) administered slowly into the oral cavity. Mice were kept in manual fixation up to ingestion of the fluid to prevent aspiration.
(§2) Animals were deeply anesthetized with isoflurane and sacrificed by decapitation. For microbiome determination, feces pellets close to the rectum were taken. For assessing fluorescence after feeding of TAMRA-labeled Aβ, the whole gut was placed in ice cold isotonic sodium chloride to prevent further peristalsis movement. Segments of 2 cm length were then chopped starting from the stomach, the content collected by longitudinal opening and stored on ice until further use.
After oral application of TAMRA-labeled Aβ or NH4OH as control and sacrifice of the animals 2, 4, or 24 h later, chyme samples were diluted with 500 μl ice cold PBS, incubated for 5 min and centrifuged. Fluorescence was measured by using 50 μl of the supernatant in duplicates (Exc 540 nm and Em 580 nm, FLUOstar Optima, BMG Labtech GmbH, Ortenberg, Germany) at intervals of 1 min over a period of 1 h at 37°C with shaking before every measurement. The mean of the values of the measurements between 15 and 45 min was used to calculate the difference between the TAMRA-labeled Aβ-treated animals and solvent-treated control animals.
FIGURE 2 Stability and time-dependent localization of per os administered Aβ peptides in the murine gastrointestinal tract. (A) TAMRA-labeled Aβ peptide was incubated in two different concentrations [high (H): 0.025 μM; low (L): 0.005 μM] with PBS-diluted gastric content of wild type mice for 2 h at 37°C. Solvent of the peptide was used as a negative control (–). Additionally, samples with PBS instead of chyme were incubated as described (buffer). Proteins were separated on PAA gel and transferred to nitrocellulose. […] (B) To assess the passage of orally administered Aβ peptides, wild type or 5xFAD mice were fed with 10 μg of TAMRA-labeled Aβ peptides and sacrificed at indicated time points. TAMRA-dependent fluorescence was determined in the chyme of 2 cm gut sections numbered from 1 (oral end = stomach) to 12 (rectal section). Values are presented as measured difference between the TAMRA-Aβ-treated animals and solvent-treated control animals (one animal per time point, technical duplicates).

The subject of another data set is Enterococcus faecalis. Also on record: method as in Soscia et al., 2010. The following applies: single microbial species; ref Soscia et al., 2010; cited from earlier work.
Another data set relates to Enterobacteriaceae. Put plainly: Family-specific cultivation, CFU on Petrifilm plates selective for Enterobacteriaceae. To be noted: 2 μM, plates 20 h at 37°C. The format is cell-based, mouse. The protocol: (§3) For assessing toxic effects of Aβ on specific microbial families, freshly collected feces was suspended and incubated with 2 μM peptide solution as described above. Afterward, feces suspensions were diluted with 0.9% sodium chloride solution for plating 1 ml on 3M^TM-Petrifilm plates specific for Enterobacteriaceae and Lactobacillaceae (3M Deutschland GmbH, Neuss, Germany). Plates were incubated for 20 h at 37°C. CFU were counted and normalized to samples from the same donor mouse incubated with scrambled peptide.
(§4) Viability was measured and calculated in percent of scrambled peptide treated samples (n = 13 animals per group,♂ = 6–7, ♀ = 6–7). […] Subsequently, aliquots of further diluted bacteria suspension were plated on Schaedler agar and incubated anaerobically for 48 h at 37°C. Number of colony forming units (CFU) of samples treated with scrambled peptide control were set to 100% (n = 7 animals per group; ♂ = 3, ♀ = 4). […] Datapoints for individual normalized measurements are shown in each graph (*p < 0.05; **p < 0.01).

Data set [2] concerns murine fecal microorganisms. As to the kind of experiment: Bacterial viability assay (BacTiter Glo) on diluted fecal samples. It is filed as cell-based, mouse. The following applies: 2 μM peptide, 10 min incubation, luminescence, n = 13 animals. The method, then: Freshly collected fecal pellets were suspended in isotonic sodium chloride solution (0.9%, 100 μl/mg) using a hand-held electric stirrer (Xenox, Fähren, Germany). Aliquots of 50 μl were supplemented with 5 μl of peptide solution in 0.4 mM NH4OH buffered in PBS. After 10 min incubation at room temperature under careful mixing for every 2 min, 20 μl of this suspension were added to 4 ml of thioglycollate bouillon (Becton Dickinson GmbH, Heidelberg, Germany) and kept for overnight at […]. The following day, 1 μl of the diluted fecal suspension was spread on Schaedler agar plates (Becton Dickinson GmbH, Heidelberg, Germany) and incubated for 48 h anaerobically (Anoxomat, Mart Microbiology B.V, Drachten, Netherlands). Lastly, colony forming units (CFU) were counted and normalized to controls from the same donor mouse incubated with scrambled peptide.
After incubation of diluted feces samples with Aβ peptide or scrambled control for plating (see above), additional 1:100 dilutions were prepared and viability measured by using the BacTiter Glo assay as indicated by the vendor (Promega, Mannheim, Germany). Relative luminescence was measured and normalized to controls from the same donor mouse incubated with scrambled peptide.
Viability was measured and calculated in percent of scrambled peptide treated samples (n = 13 animals per group,♂ = 6–7, ♀ = 6–7). […]

The subject of a further data set is Candida albicans. Also noted: method as in Soscia et al., 2010. The following applies: single microbial species; ref Soscia et al., 2010; cited from earlier work.
The next data set relates to Lactobacillaceae. Put plainly: Family-specific cultivation, CFU on Petrifilm plates selective for Lactobacillaceae. It is filed as cell-based, mouse. To be noted: 2 μM, plates 20 h at 37°C, n = 10–11. The method, then:
as §3, §4

In another data set the test system is gut microbiome. Put plainly: 16S rDNA sequencing of the gut microbiome after oral peptide application. The format is in vivo, mouse. To be noted: female wild type mice, 10 μg peptide oral once, feces. The protocol:
as §1, §2

Consider “TAMRA-labeled Aβ42: TAMRA-labeled Aβ peptide (AnaSpec) used for detecting gut transition of Aβ”, for which the “Gut segment in which TAMRA fluorescence was detected (2 cm sections, 1 = stomach to 12 = rectal)” value was 11 in data set [1] (5xFAD transgenic mouse, 2 h after treatment); 11 in data set [1] (5xFAD transgenic mouse, 4 h after treatment); 11 in data set [1] (wild type mouse, 4 h after treatment). The “TAMRA fluorescence signal in chyme of gut segments” value in data set [1] (wild type and 5xFAD mice, 24 h after treatment, any sample) is listed as “No signal could be detected”.

Turning to human Aβ1–42 [Aβ42], the “Antimicrobial effect on Enterococcus faecalis” value in the data set on Enterococcus faecalis is “antimicrobial effect”. For the same substance, the “Enterobacteriaceae CFU vs scrambled peptide control” value in the data set on Enterobacteriaceae (fecal material from transgenic 5xFAD mice, n = 10–11, p = 0.09) is “non-significant reduction”; in the data set on Enterobacteriaceae (fecal material from wild type mice, n = 10–11), “significantly reduced”. Also, the “Viability of fecal microorganisms vs scrambled peptide treated samples” value in data set [2] (fecal samples from transgenic 5xFAD mice) was “no such toxic effect”; in data set [2] (fecal samples from wild type mice), “significantly reduce viability”. Further, in the data set with Candida albicans, the “Antimicrobial effect on Candida albicans” value is given as “antimicrobial effect”. For the same substance, the “Lactobacillaceae CFU vs scrambled peptide control” value is on record as “no significant effects” with Lactobacillaceae (fecal material from transgenic 5xFAD mice) and “significantly reduced” in the data set with Lactobacillaceae (fecal material from wild type mice). For the same substance, the “Beta diversity, Bray–Curtis dissimilarity (CAP), difference vs scrambled Aβ-fed animals” value in the data set with gut microbiome is “not significant”. In addition, the “Beta diversity, Jaccard distance based ordination (CAP), vs scrambled Aβ-fed animals” value in the data set on gut microbiome is given as “significantly differed”.

The record behind these values is article PMC7251927, “Impact of Acute and Chronic Amyloid-β Peptide Exposure on Gut Microbial Commensals in the Mouse” (Frontiers in Microbiology, 2020).
